Data on one molecule can be found in patent US20220265759A1, “COMPOSITION AND METHOD FOR PROMOTING WOUND HEALING” (THE BOARD OF TRUSTEES OF THE UNIVERSITY OF ILLIOIS, priority 2019, published 2022).

Peptide text beside a SMILES is read from it. * marks the point of attachment. Myristoyl = CCCCCCCCCCCCCC(=O)*

The subject of data set [1] is cell viability. The experiment in a line: Cell viability. In kind it is cell-based.
Data set [2] deals with eNOS. The experiment in a line: eNOS protein level in WT mouse wounds. In kind it is in vivo, WT C57BL/6 mice. Conditions: day 7, compared to control peptide.
For data set [3], the system named is full thickness excisional wounds on db/db mouse dorsal skin. Briefly: Excisional dorsal skin wound healing in diabetic db/db mice. In kind it is in vivo. The protocol:
Mouse Healing Models. All animal procedures were performed in accordance with the Guide for the Care and Use of Laboratory Animals (National Institutes of Health). WT C57BL/6, eNOS^−/− and db/db mice were purchased from Jackson Laboratory (Bar Harbor, Me.). CCR10^−/− mice have been described in the art, see, e.g., Jin, et al. (2011) J. Immunol. 185(10):5723-31. Four 5-mm or two 8-mm full thickness excisional wounds were made on the dorsal skin of mice (male, aged at 9 weeks) using a standard skin biopsy punch under ketamine (100 mg/kg) and xylazine (5 mg/kg) anesthesia. Scrambled myristoylated (Myr−) control or Myr-CBD7 peptides were applied topically to wounds in F-127 gel sold under the tradename PLURONIC® after wounding (Mirza, et al. (2009) Am. J. Pathol. 175:2454-2462). Wound size was determined as previously described (Chen, et al. (2020) FASEB J. 34(4):5838-5850; Zhao, et al. (2016) PLoS ONE. 11:e0146451) and wounds were collected at indicated times for indicated measurements.
(§1) Two 8 mm full thickness excisional wounds were made on the dorsal skin of diabetic db/db mice and then 50 μl of 50 μM Myr-CBD7 peptide was topically applied. […] Reduced CCR10-eNOS interaction was also observed in the mouse wounds following treatment with Myr-CBD7 peptide as determined by Co-IP (FIG. 6).

Data set [4] concerns NO production. The experiment in a line: NO production in db/db mouse wounds (nitrite measurement). The data set is classed as in vivo, db/db mice. Conditions: day 12, nitrite measurement. The protocol: Nitrite Measurement with Griess Reagent. Supernatants from confluent endothelial cells on 10-cm dishes with and without stimulation at 37° C. were analyzed for nitrite level using a Griess Reagent kit according to the manufacturer's instructions. Nitrite levels were normalized to eNOS expression level in the cells, as described in the art (Chen, et al. (2020) FASEB J. 34(4):5838-5850).
as §1

Data set [5] has as its system CD31. Briefly: Microvessel density (CD31 staining) in db/db mouse wounds. In kind it is in vivo, db/db mice. The settings on record: day 12.
Excerpt: CD31 Staining in Mouse Wound Tissue. Formalin-fixed mouse skin samples were processed on ASP300 S automated tissue processor (Leica Biosystems, Buffalo Grove, Ill.) using a standard overnight processing protocol and embedded into paraffin blocks. Tissue was sectioned at 5 μm and stained with rabbit anti-CD31 antibody. Sections were deparaffinized, rehydrated, and stained on BOND″ RX automated stainer (Leica Biosystems, Buffalo Grove, Ill.) using a preset protocol. In brief, sections were subjected to EDTA-based antigen retrieval with BOND™ ER2 solution (Leica Biosystems, Buffalo Grove, Ill.) for 20 minutes at 100° C. Endogenous peroxidase activity and non-specific binding was blocked by treating samples with peroxidase block and protein block with Background Sniper (Biocare Medical, Pacheco, Calif.) for 15 minutes and 30 minutes at room temperature, respectively. Sections were then incubated with the primary antibody diluted at 1:200 for 30 minutes at room temperature. BOND™ Polymer Refine Detection kit (Leica Biosystems, Buffalo Grove, Ill.) was used for detection. […]
as §1

Data set [6] concerns wound blood perfusion. Briefly: Blood perfusion by laser speckle contrast analysis (LASCA) in db/db mouse wounds. In kind it is in vivo, db/db mice. The settings on record: day 7, 50 μM, vs control peptide. The protocol:
Blood Perfusion Measurement. Immediately after creation of dorsal skin wounds on db/db mice using an 8 mm punch, 50 μl of 50 μM Myr-scrambled control or Myr-CBD7 peptide in F-127 gel sold under the tradename PLURONIC® was applied topically to the wounds on db/db mice. Blood perfusion was analyzed based on motion detected below the surface of the wound using a near infrared laser based PeriCam PSI laser speckle contrast analysis system (LASCA) as described previously (Elgharably, et al. (2013) Wound Repair Regen. 21(3):473-481; Das, et al. (2016) J. Immunol. 196(12):5089-5100).
To further investigate if Myr-CBD7 promotes healing of dorsal skin wounds on db/db mice by stimulating angiogenesis, blood perfusion as detected by laser speckle contrast analysis (LASCA), was monitored.

Data set [7] deals with eNOS and CCR10 interaction with LAMP1. The experiment in a line: eNOS internalization and degradation in HDMVECs stimulated with CCL28 (Co-IP with LAMP1, confocal microscopy). The data set is classed as cell-based, human. The protocol: Co-IP Experiments, cells or mouse wounds were collected after treatment, and lysed in 2% ODG in Tris buffer. The homogenates were further prepared for Co-IP experiments as described in the art (Chen, et al. (2018) Mol. Biol. Cell 29(10):1190-1202; Chen, et al. (2020) FASEB J. 34(4):5838-5850; Chen, et al. (2015) Ann. Rheum. Dis. 74:1898-1906).
Confocal Microscopy. For cellular immunostaining, confluent monolayers of cells grown on coverslips were prepared as described previously (Chen, et al. (2012) Mel. Biol. Cell 23(7):1388-1398). Fluorescent images were obtained using a Zeiss LSM 880 confocal microscope. The co-localization coefficient in specified regions of interest (ROI) were determined using Zeiss Zen software. Briefly, using the Overlay tool, the desired ROI was drawn along the cell edge and the values for the ROIs tabulated. The scatterplot and table were automatically adjusted to the pixel distribution for the selected ROI. The data from different treatment groups were collected and analyzed for statistical significance as described previously (Chen, et al. (2020) FASEB J. 34(4):5838-5850). […]
Since myristoylated 7 amino acid CCR10-binding domain (Myr-CBD7) peptide can block eNOS interaction with CCR10 and increase eNOS activity in HUVECs, it was assessed whether Myr-CBD7 can prevent eNOS internalization and degradation in HDMVECs following CCL28 stimulation. […]

Consider `CCCCCCCCCCCCCC(=O)N[C@@H](CCCCN)C(=O)N[C@H](C(=O)N[C@@H](CO)C(=O)N[C@@H](C)C(=O)N[C@@H](CO)C(=O)N[C@@H](CC(C)C)C(=O)N[C@@H](CCSC)C(=O)O)[C@@H](C)CC` [Myr-CBD7, myr-KISASLM] (Myristoyl-KISASLM-OH), for which the “concentration without adversely affecting cell viability” value in data set [1] is given as “up to 100 μM”. Moreover, in data set [2], the “eNOS protein level in wounds” value was “enhanced”. Besides, in data set [3] (50 μl of 50 μM topical, vs control peptide), the “decrease of wound healing time” value is 4 days. In addition, the “reduction of wound size” value in data set [3] (day 4, compared to control peptide) is recorded as 19%; in data set [3] (day 12, compared to control peptide) it was 46%. In data set [3] (from day 4, 30 μl (50 μM) topical, compared with control construct), the “wound size (FIG. 5)” value was “reduces wound size significantly”. For the same molecule, the “NO production in wounds” value in data set [4] is recorded as “significantly elevated”. For the same molecule, in data set [5], the “microvessel density (CD31 staining)” value is listed as “enhanced”. Besides, the blood perfusion entry in data set [6] was “significantly increased”. Further, the “eNOS interaction with LAMP1” value in data set [7] (HDMVECs, pretreatment, CCL28 stimulation, compared to scrambled control peptide) was “prevented”. The “eNOS localization (confocal microscopy)” value in data set [7] (pretreatment prior to CCL28 for 3 hours) was “remained on the plasma membrane”.
